Tested on: adjuvant-associated biological themes in LV, SP, LN
Procedure, shortened: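 Enrichment score S sums −log(p) over consensus themes whose names contain a pre-selected adjuvant-associated term such as "stress" or "cytokine". Consensus requires a theme in all three mice of a group, p<0.05. Themes come from TargetMine analysis of genes with eij/ei(c)>2.0, Fisher's exact test, Holm-Bonferroni-corrected.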

D35: A class CpG ODN (5′-GGTGCATCGATGCAGGGGGG-3′), TLR9 ligand (DNA GGTGCATCGATGCAGGGGGG; chemistry not given here)
tissue damage-associated annotations (cell death, wounding) in LNs (LN, i.d., fold change >2): did not induce cell death and wounding in LNs
GO annotation: Cytokine-cytokine receptor interaction (Term: cytokine) (LV, ID): 0
GO annotation: Cytokine-cytokine receptor interaction|Endocytosis (Term: cytokine) (LV, ID): 5.2
GO annotation: I-kappaB kinase/NF-kappaB signaling (Term: NF-kappa B signaling pathway) (LV, ID): 0
GO annotation: NF-kappa B signaling pathway (Term: NF-kappa B signaling pathway) (LV, ID): 5.27
GO annotation: TNF signaling pathway (Term: TNF signaling pathway) (LV, ID): 12.1
GO annotation: activation of immune response (Term: immune response) (LV, ID): 0
GO annotation: activation of innate immune response (Term: innate immune response) (LV, ID): 0
GO annotation: acute inflammatory response (Term: inflammatory response) (LV, ID): 0
GO annotation: adaptive immune response (Term: adaptive immune response) (LV, ID): 0
GO annotation: apoptotic process (Term: apoptosis) (LV, ID): 0
GO annotation: apoptotic signaling pathway (Term: apoptosis) (LV, ID): 0
GO annotation: cell chemotaxis (Term: chemotaxis) (LV, ID): 4.51
GO annotation: cell death (Term: cell death) (LV, ID): 5.7
GO annotation: cell migration (Term: migration) (LV, ID): 0
GO annotation: cellular response to cytokine stimulus (Term: cytokine) (LV, ID): 3.28
GO annotation: cellular response to interferon-alpha (Term: IFN alpha) (LV, ID): 0
GO annotation: cellular response to stress (Term: stress) (LV, ID): 0
GO annotation: chemokine production (Term: chemokine) (LV, ID): 0
GO annotation: chemokine-mediated signaling pathway (Term: chemokine) (LV, ID): 0
GO annotation: chemotaxis (Term: chemotaxis) (LV, ID): 0
GO annotation: cytokine biosynthetic process (Term: cytokine) (LV, ID): 0
GO annotation: cytokine metabolic process (Term: cytokine) (LV, ID): 0
GO annotation: cytokine production (Term: cytokine) (LV, ID): 0
GO annotation: cytokine secretion (Term: cytokine) (LV, ID): 0
GO annotation: cytokine-mediated signaling pathway (Term: cytokine) (LV, ID): 0
GO annotation: death (Term: cell death) (LV, ID): 0
GO annotation: defense response (Term: defense response) (LV, ID): 5.76
GO annotation: defense response to Gram-positive bacterium (Term: defense response) (LV, ID): 0
GO annotation: defense response to bacterium (Term: defense response) (LV, ID): 0
GO annotation: defense response to other organism (Term: defense response) (LV, ID): 0
GO annotation: defense response to protozoan (Term: defense response) (LV, ID): 0
GO annotation: defense response to virus (Term: defense response) (LV, ID): 0
GO annotation: granulocyte chemotaxis (Term: chemotaxis) (LV, ID): 0
GO annotation: granulocyte migration (Term: migration) (LV, ID): 0
GO annotation: immune response (Term: immune response) (LV, ID): 0
GO annotation: immune response-activating signal transduction (Term: immune response) (LV, ID): 0
GO annotation: immune response-regulating signaling pathway (Term: immune response) (LV, ID): 0
GO annotation: inflammatory response (Term: inflammatory response) (LV, ID): 0
GO annotation: innate immune response (Term: innate immune response) (LV, ID): 0
GO annotation: innate immune response-activating signal transduction (Term: innate immune response) (LV, ID): 0
GO annotation: interferon-alpha production (Term: IFN alpha) (LV, ID): 0
GO annotation: intrinsic apoptotic signaling pathway (Term: apoptosis) (LV, ID): 0
GO annotation: leukocyte chemotaxis (Term: chemotaxis) (LV, ID): 0
GO annotation: leukocyte migration (Term: migration) (LV, ID): 0
GO annotation: leukocyte migration involved in inflammatory response (Term: inflammatory response) (LV, ID): 0
GO annotation: lymphocyte chemotaxis (Term: chemotaxis) (LV, ID): 0
GO annotation: lymphocyte migration (Term: migration) (LV, ID): 0
GO annotation: myeloid leukocyte migration (Term: migration) (LV, ID): 0
GO annotation: negative regulation of apoptotic process (Term: apoptosis) (LV, ID): 0
GO annotation: negative regulation of cell death (Term: cell death) (LV, ID): 0
GO annotation: negative regulation of cytokine production (Term: cytokine) (LV, ID): 0
GO annotation: negative regulation of defense response (Term: defense response) (LV, ID): 0
GO annotation: negative regulation of immune response (Term: immune response) (LV, ID): 0
GO annotation: negative regulation of innate immune response (Term: innate immune response) (LV, ID): 0
GO annotation: negative regulation of programmed cell death (Term: cell death) (LV, ID): 0
GO annotation: neutrophil chemotaxis (Term: chemotaxis) (LV, ID): 0
GO annotation: neutrophil migration (Term: migration) (LV, ID): 0
GO annotation: positive regulation of I-kappaB kinase/NF-kappaB signaling (Term: NF-kappa B signaling pathway) (LV, ID): 0
GO annotation: positive regulation of adaptive immune response (Term: adaptive immune response) (LV, ID): 0
GO annotation: positive regulation of apoptotic process (Term: apoptosis) (LV, ID): 3.18
GO annotation: positive regulation of cell death (Term: cell death) (LV, ID): 0
GO annotation: positive regulation of cell migration (Term: migration) (LV, ID): 0
GO annotation: positive regulation of chemokine production (Term: chemokine) (LV, ID): 0
GO annotation: positive regulation of chemotaxis (Term: chemotaxis) (LV, ID): 0
GO annotation: positive regulation of cytokine biosynthetic process (Term: cytokine) (LV, ID): 0
GO annotation: positive regulation of cytokine production (Term: cytokine) (LV, ID): 0
GO annotation: positive regulation of defense response (Term: defense response) (LV, ID): 0
GO annotation: positive regulation of immune response (Term: immune response) (LV, ID): 0
GO annotation: positive regulation of inflammatory response (Term: inflammatory response) (LV, ID): 0
GO annotation: positive regulation of innate immune response (Term: innate immune response) (LV, ID): 0
GO annotation: positive regulation of interferon-alpha production (Term: IFN alpha) (LV, ID): 0
GO annotation: positive regulation of leukocyte chemotaxis (Term: chemotaxis) (LV, ID): 0
GO annotation: positive regulation of leukocyte migration (Term: migration) (LV, ID): 0
GO annotation: positive regulation of programmed cell death (Term: cell death) (LV, ID): 3.05
GO annotation: positive regulation of response to wounding (Term: wounding) (LV, ID): 0
GO annotation: positive regulation of tumor necrosis factor superfamily cytokine (Term: cytokine) (LV, ID): 0
GO annotation: production of molecular mediator of immune response (Term: immune response) (LV, ID): 0
GO annotation: programmed cell death (Term: cell death) (LV, ID): 0
GO annotation: regulation of I-kappaB kinase/NF-kappaB signaling (Term: NF-kappa B signaling pathway) (LV, ID): 0
GO annotation: regulation of adaptive immune response (Term: adaptive immune response) (LV, ID): 0
GO annotation: regulation of apoptotic process (Term: apoptosis) (LV, ID): 0
GO annotation: regulation of apoptotic signaling pathway (Term: apoptosis) (LV, ID): 0
GO annotation: regulation of cell death (Term: cell death) (LV, ID): 0
GO annotation: regulation of cell migration (Term: migration) (LV, ID): 0
GO annotation: regulation of chemokine production (Term: chemokine) (LV, ID): 0
GO annotation: regulation of chemotaxis (Term: chemotaxis) (LV, ID): 0
GO annotation: regulation of cytokine biosynthetic process (Term: cytokine) (LV, ID): 0
GO annotation: regulation of cytokine production (Term: cytokine) (LV, ID): 0
GO annotation: regulation of defense response (Term: defense response) (LV, ID): 0
GO annotation: regulation of defense response to virus (Term: defense response) (LV, ID): 0
GO annotation: regulation of defense response to virus by host (Term: defense response) (LV, ID): 0
GO annotation: regulation of immune response (Term: immune response) (LV, ID): 0
GO annotation: regulation of inflammatory response (Term: inflammatory response) (LV, ID): 0
GO annotation: regulation of innate immune response (Term: innate immune response) (LV, ID): 0
GO annotation: regulation of interferon-alpha production (Term: IFN alpha) (LV, ID): 0
GO annotation: regulation of intrinsic apoptotic signaling pathway (Term: apoptosis) (LV, ID): 0
GO annotation: regulation of leukocyte chemotaxis (Term: chemotaxis) (LV, ID): 0
GO annotation: regulation of leukocyte migration (Term: migration) (LV, ID): 0
GO annotation: regulation of programmed cell death (Term: cell death) (LV, ID): 0
GO annotation: regulation of response to stress (Term: stress) (LV, ID): 0
GO annotation: regulation of response to wounding (Term: wounding) (LV, ID): 0
GO annotation: regulation of tumor necrosis factor superfamily cytokine production (Term: cytokine) (LV, ID): 0
GO annotation: response to cytokine (Term: cytokine) (LV, ID): 8.12
GO annotation: response to interferon-alpha (Term: IFN alpha) (LV, ID): 0
GO annotation: response to stress (Term: stress) (LV, ID): 9.13
GO annotation: response to wounding (Term: wounding) (LV, ID): 0
GO annotation: taxis (Term: chemotaxis) (LV, ID): 0
GO annotation: tumor necrosis factor superfamily cytokine production (Term: cytokine) (LV, ID): 0
IFN beta: cellular response to interferon-beta (LV, ID): 0
IFN beta: interferon-beta production (LV, ID): 0
IFN beta: positive regulation of interferon-beta production (LV, ID): 0
IFN beta: regulation of interferon-beta production (LV, ID): 0
IFN beta: response to interferon-beta (LV, ID): 0
IFN gamma: cellular response to interferon-gamma (LV, ID): 0
IFN gamma: interferon-gamma production (LV, ID): 0
IFN gamma: regulation of interferon-gamma production (LV, ID): 0
IFN gamma: response to interferon-gamma (LV, ID): 0
interleukin-6: interleukin-6 production (LV, ID): 0
interleukin-6: positive regulation of interleukin-6 production (LV, ID): 0
interleukin-6: regulation of interleukin-6 production (LV, ID): 0
interleukin-12: interleukin-12 production (LV, ID): 0
interleukin-12: positive regulation of interleukin-12 production (LV, ID): 0
interleukin-12: regulation of interleukin-12 production (LV, ID): 0
GO annotation: adaptive immune response based on somatic recombination of immune receptors built from immunoglobulin superfamily domains (Term: adaptive immune response) (mouse, in vivo): 0
GO annotation: regulation of adaptive immune response based on somatic recombination of immune receptors built from immunoglobulin superfamily domains (Term: adaptive immune response) (mouse, in vivo): 0

From US20230021483A1, “[…] […] METHOD AND CLASSIFICATION OF PHARMACEUTICAL COMPONENTS BY USING TRANSCRIPTOMES” (National Institutes of Biomedical Innovation, Health and …, priority 2016, published 2023)
